Measured values taken from PubChem BioAssay AID248 (DTP/NCI, 2004).
Values joined by “and” are separate entries in the source; they are usually repeats but may differ in a detail not shown here. Equal values may be shown once. Inconclusive results and toxic doses are left out. Cut-off read from the data, not from the text of the source: active = T/C of 150% or more; inactive = T/C below 125%.

System: L1210 leukemia ip in BDF1 mice, survival T/C
Test: NCI In Vivo Anticancer Drug Screen. Data for tumor model L1210 Leukemia (intraperitoneal) in B6D2F1 (BDF1) mice
Conditions: endpoint: mean survival time, higher = longer survival
How it was run: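 Transplantable tumor model; survival measured in treated vs vehicle control mice. Value = treated/control.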

[1] = dose: 100.0 mg/kg/injection, schedule: Q01DX001 (ip), vehicle: Klucel (hydroxypropylcellulose) (HPC)
[2] = dose: 200.0 mg/kg/injection, schedule: Q01DX001 (ip), vehicle: Klucel (hydroxypropylcellulose) (HPC)
[3] = dose: 6.25 mg/kg/injection, schedule: Q01DX009 (ip), vehicle: saline
[4] = dose: 12.5 mg/kg/injection, schedule: Q01DX009 (ip), vehicle: saline
[5] = dose: 100.0 mg/kg/injection, schedule: Q01DX001 (ip), vehicle: carboxymethylcellulose (CMC)
[6] = dose: 200.0 mg/kg/injection, schedule: Q01DX001 (ip), vehicle: carboxymethylcellulose (CMC)
[7] = dose: 400.0 mg/kg/injection, schedule: Q01DX001 (ip), vehicle: carboxymethylcellulose (CMC)
[8] = dose: 50.0 mg/kg/injection, schedule: Q01DX009 (ip), vehicle: saline
[9] = dose: 100.0 mg/kg/injection, schedule: Q01DX009 (ip), vehicle: saline
[10] = dose: 200.0 mg/kg/injection, schedule: Q01DX009 (ip), vehicle: saline
[11] = dose: 100.0 mg/kg/injection, schedule: Q01DX001 (ip), vehicle: saline
[12] = dose: 100.0 mg/kg/injection, schedule: Q04DX003 (ip), vehicle: saline
[13] = dose: 200.0 mg/kg/injection, schedule: Q01DX001 (ip), vehicle: saline
[14] = dose: 200.0 mg/kg/injection, schedule: Q04DX003 (ip), vehicle: saline
[15] = dose: 400.0 mg/kg/injection, schedule: Q01DX001 (ip), vehicle: saline
[16] = dose: 400.0 mg/kg/injection, schedule: Q04DX003 (ip), vehicle: saline
[17] = dose: 100.0 mg/kg/injection, schedule: Q01DX001 (ip), vehicle: saline with Tween-80
[18] = dose: 200.0 mg/kg/injection, schedule: Q01DX001 (ip), vehicle: saline with Tween-80
[19] = dose: 400.0 mg/kg/injection, schedule: Q01DX001 (ip), vehicle: saline with Tween-80

Measured: T/C

O=C1OCC/C1=C/CCCCC/C=C1\CCOC1=O
inactive: dose: 100.0 mg/kg/injection, schedule: Q01DX001 (sc), vehicle: olive oil, sesame oil, peanut oil 103 % of control | dose: 100.0 mg/kg/injection, schedule: Q04DX003 (sc), vehicle: olive oil, sesame oil, peanut oil 104 % of control | dose: 200.0 mg/kg/injection, schedule: Q01DX001 (sc), vehicle: olive oil, sesame oil, peanut oil 100 % of control | dose: 200.0 mg/kg/injection, schedule: Q04DX003 (sc), vehicle: olive oil, sesame oil, peanut oil 100 % of control | dose: 400.0 mg/kg/injection, schedule: Q01DX001 (sc), vehicle: olive oil, sesame oil, peanut oil 96 % of control | dose: 400.0 mg/kg/injection, schedule: Q04DX003 (sc), vehicle: olive oil, sesame oil, peanut oil 102 % of control

Clc1ccccc1C=Nc1ccc2c(c1)Cc1ccccc1-2
inactive: [1] 87 % of control | dose: 100.0 mg/kg/injection, schedule: Q04DX003 (ip), vehicle: Klucel (hydroxypropylcellulose) (HPC) 101 % of control | [2] 93 % of control | dose: 200.0 mg/kg/injection, schedule: Q04DX003 (ip), vehicle: Klucel (hydroxypropylcellulose) (HPC) 94 % of control | dose: 400.0 mg/kg/injection, schedule: Q01DX001 (ip), vehicle: Klucel (hydroxypropylcellulose) (HPC) 87 % of control | dose: 400.0 mg/kg/injection, schedule: Q04DX003 (ip), vehicle: Klucel (hydroxypropylcellulose) (HPC) 101 % of control

CC1(C)C(=O)N(Cl)C(=O)N1Cl
inactive: dose: 3.12 mg/kg/injection, schedule: Q01DX009 (ip), vehicle: Klucel (hydroxypropylcellulose) (HPC) 90 % of control | dose: 3.13 mg/kg/injection, schedule: Q01DX001 (ip), vehicle: saline sonified 90 % of control | dose: 3.13 mg/kg/injection, schedule: Q01DX009 (ip), vehicle: saline 99 % of control | dose: 6.25 mg/kg/injection, schedule: Q01DX001 (ip), vehicle: saline sonified 97 % of control | dose: 6.25 mg/kg/injection, schedule: Q01DX009 (ip), vehicle: Klucel (hydroxypropylcellulose) (HPC) 90 % of control | [3] 95 % of control | dose: 12.5 mg/kg/injection, schedule: Q01DX001 (ip), vehicle: saline sonified 95 % of control | [4] 99 % of control | dose: 12.5 mg/kg/injection, schedule: Q04DX002 (ip), vehicle: Klucel (hydroxypropylcellulose) (HPC) 97 % of control | dose: 25.0 mg/kg/injection, schedule: Q01DX009 (ip), vehicle: Klucel (hydroxypropylcellulose) (HPC) 91 % of control | dose: 25.0 mg/kg/injection, schedule: Q04DX002 (ip), vehicle: Klucel (hydroxypropylcellulose) (HPC) 94 % of control

CCCCCOc1ccc(C2=C(c3ccccc3)C(=O)C(c3ccccc3)=C2c2ccccc2)cc1
inactive: [5] 100 % of control | [6] 100 % of control | [7] 94 % of control

CC(C)(Oc1ccc(Cl)cc1)C(=O)NC(N)=O
inactive: [8] 95 % of control | [9] 113 % of control | [10] 103 % of control

c1ccc2cc3c(cc2c1)Cn1c-3nc2ccccc21
inactive: [11] 108 % of control | [9] 97 % of control | dose: 100.0 mg/kg/injection, schedule: Q01DX015 (ip), vehicle: saline 95 % of control | [12] 98 % of control | [13] 100 % of control | [10] 95 % of control | dose: 200.0 mg/kg/injection, schedule: Q01DX015 (ip), vehicle: saline 97 % of control | [14] 93 % of control | [15] 100 % of control | dose: 400.0 mg/kg/injection, schedule: Q01DX009 (ip), vehicle: saline 112 % of control | [16] 96 % of control

Cn1nnnc1CCO
inactive: dose: 100.0 mg/kg/injection, schedule: Q01DX001 (ip), vehicle: acetone 94 % of control | dose: 200.0 mg/kg/injection, schedule: Q01DX001 (ip), vehicle: acetone 97 % of control | dose: 400.0 mg/kg/injection, schedule: Q01DX001 (ip), vehicle: acetone 97 % of control

COc1ccc(N)cc1NC(C)=O
inactive: [11] 102 % of control | [13] 110 % of control

COC(=O)C1OC1c1cc(Cl)ccc1OC (stereo not given)
inactive: [11] 102 % of control | [13] 94 % of control | [15] 94 % of control

CC(=O)NC12CC3CC(CC(C)(C3)C1)C2
inactive: [1] 103 % of control | [2] 106 % of control

O=[N+]([O-])c1ccc2c3c(cccc13)CC2
inactive: [11] 102 % of control | [13] 96 % of control | [15] 90 % of control

CC1CN1P(=O)(Oc1ccccc1)N1CC1C (stereo not given)
inactive: dose: 44.0 mg/kg/injection, schedule: Q01DX Z (ip), vehicle: saline 107 % of control | dose: 67.0 mg/kg/injection, schedule: Q01DX Z (ip), vehicle: saline 107 % of control | dose: 100.0 mg/kg/injection, schedule: Q01DX Z (ip), vehicle: saline 102 % of control | dose: 150.0 mg/kg/injection, schedule: Q01DX Z (ip), vehicle: saline 122 % of control

O=C(Nc1cccc(C(F)(F)F)c1)c1cccc(C(=O)Nc2cccc(C(F)(F)F)c2)c1
inactive: dose: 12.5 mg/kg/injection, schedule: Q04DX003 (ip), vehicle: saline with Tween-80 96 % of control | dose: 25.0 mg/kg/injection, schedule: Q04DX003 (ip), vehicle: saline with Tween-80 91 % of control | dose: 50.0 mg/kg/injection, schedule: Q04DX003 (ip), vehicle: saline with Tween-80 90 % of control

CC(NC(=O)/C=C\C(=O)O)c1ccccc1 (stereo not given)
inactive: [12] 92 % of control | [14] 102 % of control | [16] 103 % of control

OCC1C2CCC(O2)C1CO (stereo not given)
inactive: dose: 0.75 mg/kg/injection, schedule: Q04DX002 (ip), vehicle: saline 96 % of control | dose: 1.5 mg/kg/injection, schedule: Q04DX002 (ip), vehicle: saline 93 % of control and 110 % of control | dose: 3.0 mg/kg/injection, schedule: Q04DX002 (ip), vehicle: saline 96 % of control | dose: 6.0 mg/kg/injection, schedule: Q04DX002 (ip), vehicle: saline 101 % of control and 115 % of control | dose: 12.5 mg/kg/injection, schedule: Q04DX002 (ip), vehicle: saline 101 % of control | dose: 25.0 mg/kg/injection, schedule: Q04DX002 (ip), vehicle: saline 108 % of control | dose: 50.0 mg/kg/injection, schedule: Q04DX002 (ip), vehicle: saline 111 % of control | dose: 100.0 mg/kg/injection, schedule: Q04DX002 (ip), vehicle: saline 105 % of control

CCCCCCCCCCCCCCCCCC(=O)N/N=C/c1ccccc1
inactive: dose: 100.0 mg/kg/injection, schedule: Q01DX009 (ip), vehicle: other 91 % of control | dose: 200.0 mg/kg/injection, schedule: Q01DX009 (ip), vehicle: other 89 % of control | dose: 400.0 mg/kg/injection, schedule: Q01DX009 (ip), vehicle: other 105 % of control

Cc1cc(Cl)cc(CN(C)Cc2c(C)[nH]c(=O)[nH]c2=O)c1O
inactive: [5] 97 % of control | [6] 94 % of control | [7] 97 % of control

N#CC(C#N)=C1CCSc2ccc(Cl)cc21
inactive: [11] 94 % of control | [13] 97 % of control | [15] 90 % of control

Nc1ccc(OCCCOc2ccccc2)cc1
inactive: [17] 102 % of control | dose: 100.0 mg/kg/injection, schedule: Q01DX009 (ip), vehicle: saline with Tween-80 101 % of control | [18] 102 % of control | dose: 200.0 mg/kg/injection, schedule: Q01DX009 (ip), vehicle: saline with Tween-80 112 % of control | [19] 97 % of control

CN(C)CCC=C1c2ccccc2C=Cc2ccccc21
inactive: dose: 3.12 mg/kg/injection, schedule: Q01DX009 (ip), vehicle: saline 98 % of control | [3] 93 % of control and 104 % of control | [4] 107 % of control and 96 % of control | dose: 25.0 mg/kg/injection, schedule: Q01DX009 (ip), vehicle: saline 98 % of control and 101 % of control | dose: 25.0 mg/kg/injection, schedule: Q04DX003 (ip), vehicle: saline 112 % of control and 103 % of control | [8] 109 % of control | dose: 50.0 mg/kg/injection, schedule: Q04DX003 (ip), vehicle: saline 98 % of control and 105 % of control

NC(=O)n1ccc(CC(O)(C(F)(F)F)C(F)(F)F)n1
inactive: [17] 96 % of control | [18] 96 % of control | [19] 96 % of control
